Assay results taken from patent US20180179499A1, “BIOBASED PRODUCTION OF FUNCTIONALIZED ALPHA-SUBSTITUTED ACRYLATES AND C4-DICARBOXYLATES” (BIOAMBER INC., priority 2015, published 2018).

Experiments:
[1] = test system: potential yeast hosts (I. orientalis, S. cerevisiae); experiment: Tolerance of potential yeast hosts: maximum concentration in which growth was detected; type: cell-based
Experimental: (§1) Two eukaryotic strains, I. orientalis and S. cerevisiae, were tested at pH 3 and pH 5. Three bacterial strains were tested using their individual optimal conditions. E. coli and C. glutamicum were tested at pH 8 and 30° C., and B. firmus was tested at pH 9 and 37° C. I. orientalis was grown in defined yeast media consisting of 5 g/L ammonium sulfate, 0.5 g/L magnesium sulfate heptahydrate, 3 g/L potassium phosphate monobasic, 10 g/L dextrose, 1 mL/L of 10% glycerol stock, 1 mL/L of 1000× trace. The 1000× trace stock solution contains 4 g/L ZnSO4.7H2O, 2 g/L FeSO4.7H2O, 1 g/L MnSO4.H2O, 0.2 g/L CuSO4.5H2O, and 0.8 mL/L H2SO4. S. cerevisiae was grown in buffered defined dextrose media consisting of 50 g/L dextrose, 5 g/L yeast extract, and 40 mL/L 25× DM salts. The 25× DM salt stock solution contains 125 g/L ammonium sulfate, 12.5 g/L magnesium sulfate heptahydrate, 75 g/L potassium phosphate monobasic, and 787.5 g/L water. The bacterial strains were grown in standard LB media consisting of 10 g/L bacto-tryptone, 5 g/L yeast extract, 10 g/L NaCl, and 20 g/L dextrose with addition of 20 g/L glucose.
(§2) Time points were taken over a period of at least 8 hours and up to 24 hours to calculate the rate of growth. Specific growth rate was determined by plotting the natural logarithm of cell number against time. Tolerance was determined by growth rate of cells in the presence of the compound as compared to in the absence of the compound.
(§3) Two eukaryotic strains, I. orientalis and S. cerevisiae, were tested for tolerance to the selected compounds at pH 3 and pH 5. The bacterial strains were grown at their individual optimal conditions, E coli and C. glutamicum at pH 8 and 30° C., and B. firmus and B. cohnii at pH 9 and 37° C. I. orientalis was grown in defined yeast media consisting of 5 g/L ammonium sulfate, 0.5 g/L magnesium sulfate heptahydrate, 3 g/L potassium phosphate monobasic, 10 g/L dextrose, 1 mL/L of 10% glycerol stock, 1 mL/L of 1000× trace. The 1000× trace stock solution contains 4 g/L ZnSO4.7H2O, 2 g/L FeSO4.7H2O, 1 g/L MnSO4.H2O, 0.2 g/L CuSO4.5H2O, and 0.8 mL/L H2SO4. S. cerevisiae was grown in buffered defined dextrose media consisting of 50 g/L dextrose, 5 g/L yeast extract, and 40 mL/L 25×DM salts. The 25×DM salt stock solution contains 125 g/L ammonium sulfate, 12.5 g/L magnesium sulfate heptahydrate, 75 g/L potassium phosphate monobasic, and 787.5 g/L water. The bacterial strains were grown in standard LB media consisting of 10 g/L bacto-tryptone, 5 g/L yeast extract, 10 g/L NaCl, and 20 g/L dextrose with addition of 20 g/L glucose.
as §2

[2] = test system: potential bacterial hosts (E. coli, C. glutamicum, B. firmus, B. cohnii); experiment: Tolerance of potential bacterial hosts: highest concentration with growth observed; type: cell-based; settings: Table L
Experimental: as §1, §2, §3, §2

[3] = Synthase activity assay (DTNB, lysates of BL21 E. coli expressing the candidate); type: biochemical; settings: 0.5 mM hydroxypyruvate
Experimental: E coli optimized genes encoding synthases were synthesized and cloned into pTrcHisA (Life Technologies (formerly Invitrogen)). Synthase genes tested are found in Table G. Plasmids containing the optimized synthase genes were transformed into BL21 E. coli cells. Empty plasmid pTrcHisA was also transformed as a negative control. […]. Flasks were incubated at 30° C. at 250 rpm shaking for 2 hours, then protein production was induced with 0.2 mM IPTG and incubated for 4 more hours at 30° C. while shaking. Cells were harvested by centrifugation and pellets were stored at −80° C.
Activity of synthase candidates was assessed with an in vitro assay using DTNB (5,5′-Dithiobis(2-nitrobenzoic acid)) as an indicator. The enzyme activity was tested using either no substrate or hydroxypyruvate as the substrate. The DTNB interacts with the free thio created by the condensation of acetyl-CoA and the substrate present. Unless otherwise specified, all chemicals were purchased from Sigma-Aldrich Chemical Company, St. Louis, Mo.
Cells were lysed using mechanical disruption using a BeadBeater (BopSpec products, Bartlesville, Okla.) following the manufacturer's instructions. The cell lysate was partially clarified by centrifugation (14,000G for 5 minutes). Protein concentrations of the resulting clarified lysates were measured via BioRad total Protein assay using the manufacturer's instructions. Lysates were normalized by protein concentration in 100 mM Tris buffer. The normalized lysates were diluted 1 to 7 in 100 mM Tris buffer. 20 μl of lysate was added to each well for the 96-well plate assay. Each condition was performed in triplicate.
The reaction mixture contains 100 mM Tris pH 7.4, 5 mM MgSO4, 0.2 mM acetyl-CoA, 0.5 mM DTNB, 0.5 mM substrate, hydroxypyruvate. To start the reaction, 180 μl of reaction mix was added to each well already containing 20 μl lysate. The reactions in these microplates were monitored at 412 nm. Readings were taken every 9 seconds for 10 minutes and the data was used to calculate activities of each enzyme. Synthase activity was observed when hydroxypyruvate was the substrate as compared to cells containing empty vector (FIG. 20(a), Table G). Background absorbance as measured by the same reaction with no substrate present were subtracted. Error bars in the graphs reflect the standard deviations calculated for the averages for each condition performed in triplicate. Specific mutations change the activity of the enzymes tested (FIG. 20(b), Table H). Further enzyme engineering will improve specificity and activity of desired enzymatic reaction.

[4] = Table G, 0.2 mM acetyl-CoA, pH 7.4, no-substrate background subtracted
[5] = Table H, wild type and mutant synthases

Row | Molecule | Max conc (maximum concentration in which growth was detected) ([1]; Table K) [g/L] | Max conc (maximum concentration in which growth was detected) [2] [g/L] | also measured
1 | CC(C)C(O)(CC(=O)O)C(=O)O (stereo not shown) [2-isopropylmalic acid] |  |  | Max conc (maximum concentration in which growth was detected) ([1]; Table E): 50 g/L
2 | CC(C)C(C(=O)O)C(O)C(=O)O (stereo not shown) [3-isopropylmalic acid] |  |  | Max conc (maximum concentration in which growth was detected) ([1]; Table E): 50 g/L
3 | C=C(CO)C(=O)OCC [Ethyl hydroxymethyl acrylate] | 20 |  | 
4 | C=CC(=O)OCCO [Hydroxyethyl acrylate] | 5 | 20 | 
5 | C=CC(=O)OCO [Hydroxymethyl acrylate] | 20 | 20 | 
6 | C=C1CCOC1=O [MBL] | 5 | 5 | 
7 | C=C1CC(C)OC1=O (stereo not shown) [MeMBL, methyl 2-methylene 4 butyrolactone] | 5 | 5 | 
8 | AvNifV: candidate synthase NifV, Azotobacter vinelandii, GenBank AAA22169 |  |  | Activity with hydroxy pyruvate [3, 4]: 0.054 µmol/min/mg
9 | Methyl hydroxyethyl acrylate | 5 | 20 | 
10 | SpLys4mt1: Lys4 mutant D123N, Schizosaccharomyces pombe (protein, UniProt Q9Y823 1-418, looked up, variant D123N) MSVSEANGTETIKPPMNGNPYGPNPSDFLSRVNNFSIIESTLREGEQFANAFFDTEKKIQIAKALDNFGVDYIELTSPVASEQSRQDCEAICKLGLKCKILTHIRCHMDDARVAVETGVDGVNVVIGTSQYLRKYSHGKDMTYIIDSATEVINFVKSKGIEVRFSSEDSFRSDLVDLLSLYKAVDKIGVNRVGIADTVGCATPRQVYDLIRTLRGVVSCDIECHFHNDTGMAIANAYCALEAGATHIDTSILGIGERNGITPLGALLARMYVTDREYITHKYKLNQLRELENLVADAVEVQIPFNNYITGMCAFTHKAGIHAKAILANPSTYEILKPEDFGMSRYVHVGSRLTGWNAIKSRAEQLNLHLTDAQAKELTVRIKKLADVRTLAMDDVDRVLREYHADLSDADRITKEASA |  |  | Activity with hydroxy pyruvate [3, 5]: 0.004
11 | SpLys4mt2: Lys4 mutant D123N, V125F, Schizosaccharomyces pombe (protein, UniProt Q9Y823 1-418, looked up, variant D123N V125F) MSVSEANGTETIKPPMNGNPYGPNPSDFLSRVNNFSIIESTLREGEQFANAFFDTEKKIQIAKALDNFGVDYIELTSPVASEQSRQDCEAICKLGLKCKILTHIRCHMDDARVAVETGVDGVNVFIGTSQYLRKYSHGKDMTYIIDSATEVINFVKSKGIEVRFSSEDSFRSDLVDLLSLYKAVDKIGVNRVGIADTVGCATPRQVYDLIRTLRGVVSCDIECHFHNDTGMAIANAYCALEAGATHIDTSILGIGERNGITPLGALLARMYVTDREYITHKYKLNQLRELENLVADAVEVQIPFNNYITGMCAFTHKAGIHAKAILANPSTYEILKPEDFGMSRYVHVGSRLTGWNAIKSRAEQLNLHLTDAQAKELTVRIKKLADVRTLAMDDVDRVLREYHADLSDADRITKEASA |  |  | Activity with hydroxy pyruvate [3, 5]: 0.009
12 | ScLys20: candidate synthase lys20, Saccharomyces cerevisiae, GenBank CAA58264 (protein, UniProt P48570 1-428, looked up) Homocitrate synthase, …: MTAAKPNPYAAKPGDYLSNVNNFQLIDSTLREGEQFANAFFDTEKKIEIARALDDFGVDYIELTSPVASEQSRKDCEAICKLGLKAKILTHIRCHMDDAKVAVETGVDGVDVVIGTSKFLRQYSHGKDMNYIAKSAVEVIEFVKSKGIEIRFSSEDSFRSDLVDLLNIYKTVDKIGVNRVGIADTVGCANPRQVYELIRTLKSVVSCDIECHFHNDTGCAIANAYTALEGGARLIDVSVLGIGERNGITPLGGLMARMIVAAPDYVKSKYKLHKIRDIENLVADAVEVNIPFNNPITGFCAFTHKAGIHAKAILANPSTYEILDPHDFGMKRYIHFANRLTGWNAIKARVDQLNLNLTDDQIKEVTAKIKKLGDVRSLNIDDVDSIIKNFHAEVSTPQVLSAKKNKKNDSDVPELATIPAAKRTKPSA |  |  | Activity with hydroxy pyruvate [3, 4]: 0.095 µmol/min/mg
13 | EcLeuA: candidate synthase LeuA, Escherichia coli, GenBank AAC73185 (protein, UniProt P09151 2-523, looked up) 2-isopropylmalate synthase: SQQVIIFDTTLRDGEQALQASLSVKEKLQIALALERMGVDVMEVGFPVSSPGDFESVQTIARQVKNSRVCALARCVEKDIDVAAESLKVAEAFRIHTFIATSPMHIATKLRSTLDEVIERAIYMVKRARNYTDDVEFSCEDAGRTPIADLARVVEAAINAGATTINIPDTVGYTMPFEFAGIISGLYERVPNIDKAIISVHTHDDLGLAVGNSLAAVHAGARQVEGAMNGIGERAGNCSLEEVIMAIKVRKDILNVHTAINHQEIWRTSQLVSQICNMPIPANKAIVGSGAFAHSSGIHQDGVLKNRENYEIMTPESIGLNQIQLNLTSRSGRAAVKHRMDEMGYKESEYNLDNLYDAFLKLADKKGQVFDYDLEALAFIGKQQEEPEHFRLDYFSVQSGSNDIATAAVKLACGEEVKAEAANGNGPVDAVYQAINRITEYNVELVKYSLTAKGHGKDALGQVDIVANYNGRRFHGVGLATDIVESSAKAMVHVLNNIWRAAEVEKELQRKAQHNENNKETV |  |  | Activity with hydroxy pyruvate [3, 4]: 0.022 µmol/min/mg
14 | LiLeuA: candidate synthase LeuA/CimA, Leptospira interogans, GenBank AAN49401 (protein, UniProt Q72RL9 1-501, looked up) 2-isopropylmalate synthase: MDLKDYVRIFDTTLRDGEQCPGAAMTENEKLEIASQLATMKVDIIEAGFPVSSPVQFQAVERIARETEGPMIAALARAMKADIEAASKALQPAKKRRIHTFIASSPIHMKYKLGKEPKEVLKMAVEAVTLCRQFVDDVEFSPEDATRSEPEFLRELCEAVIAAGATTINIPDTVGYTTPAEYGGLFKFLLSNVRGAEKIIFSAHCHNDLGLATANSLAAVQNGARQIECTINGIGERAGNTAMEEVVMAMRTRKDTFGIQTQIKTEEIARASYLVKTITGMLVQPNKAIVGANAFAHESGIHQDGVIKHRETYEIMKPETVGLSSNRMVLGRHSGRAGFKDRIVKLGFSPQVEELEAAYQRFLEIADRKKEIYDEDIRALFSEEARKSTGDRFQLEGFTVSTGTKSTPTAGVRILIDGHVREESATGDGPVDAIYKAIQKTTGMDPEVSRLVISPVTEGQDAMAEASVTLEYKGDRVVGKGSSTDIIEACSRAYISALNRL |  |  | Activity with hydroxy pyruvate [3, 4]: 0.045 µmol/min/mg
